Results as given in patent US20090062253A1, “HETEROCYCLODIAZEPINE CANNABINOID RECEPTOR MODULATORS FOR TREATMENT OF DISEASE” (KALYPSYS, INC., priority 2007, published 2009).

How the values were obtained:
Human CB2 = molecular target: T1, Human CB2 (Homo sapiens, UniProt P34972); test: Human CB2 Radioligand Binding Assay; settings: membranes from stably transfected CHO CB2 cells; competition with [3H] CP-55,940; read-out: CB2 Ligand Binding Asssay
T1 construct: expressed in transfected cells; membrane preparation
T1 sequence (P34972 whole entry): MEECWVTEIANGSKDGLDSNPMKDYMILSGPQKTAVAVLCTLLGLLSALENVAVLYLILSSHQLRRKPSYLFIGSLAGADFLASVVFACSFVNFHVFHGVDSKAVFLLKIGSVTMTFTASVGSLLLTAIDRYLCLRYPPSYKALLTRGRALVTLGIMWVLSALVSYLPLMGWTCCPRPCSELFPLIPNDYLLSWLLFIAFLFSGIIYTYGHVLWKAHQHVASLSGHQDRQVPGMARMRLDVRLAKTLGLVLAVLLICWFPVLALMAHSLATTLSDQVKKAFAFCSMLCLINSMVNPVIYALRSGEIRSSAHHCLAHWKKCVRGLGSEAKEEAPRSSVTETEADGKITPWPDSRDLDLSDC
Summary of the method: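 Filtration competition against [3H]CP-55,940 at its Kd on membranes from CHO cells stably expressing human CB2; compounds at 10 uM single point or dose-response, 1% DMSO. Buffer 50 mM Tris-HCl pH 7.4, EGTA, MgCl2, 5.0 mg/ml BSA; 90 min at 30° C, scintillation read; 100 nM CP-55,940 = 100%.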

[1] = molecular target: T2, human cannabinoid receptor type 1 (Homo sapiens, UniProt P21554); test: Human CB1 Radioligand Binding Assay (basis of selectivity CB2 vs. CB1)
T2 construct: purchased Perkin Elmer RBHCB1M; host or cells: HEK 293 EBNA cells
T2 sequence (P21554 whole entry): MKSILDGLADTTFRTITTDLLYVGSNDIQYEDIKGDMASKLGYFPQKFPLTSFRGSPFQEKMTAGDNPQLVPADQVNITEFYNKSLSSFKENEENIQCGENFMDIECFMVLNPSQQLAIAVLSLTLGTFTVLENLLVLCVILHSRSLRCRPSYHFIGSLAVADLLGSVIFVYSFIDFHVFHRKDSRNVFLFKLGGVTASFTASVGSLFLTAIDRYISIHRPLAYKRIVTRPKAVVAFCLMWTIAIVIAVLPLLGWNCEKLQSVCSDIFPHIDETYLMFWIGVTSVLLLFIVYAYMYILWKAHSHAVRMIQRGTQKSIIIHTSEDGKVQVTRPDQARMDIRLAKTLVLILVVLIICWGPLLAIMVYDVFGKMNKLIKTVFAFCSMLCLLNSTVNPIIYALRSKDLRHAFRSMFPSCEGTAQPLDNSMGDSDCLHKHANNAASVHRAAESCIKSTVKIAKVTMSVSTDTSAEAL
Summary of the method: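 Filtration competition binding against [3H] CP-55,940 at its Kd, using membranes from HEK 293 EBNA cells expressing human CB1; 90 minutes at 30° C in 50 mM Tris-HCl pH 7.4, 2.5 mM EDTA, 5 mM MgCl2, 5.0 mg/ml BSA, 1% DMSO. Single point 10 uM or dose-response; 100 nM CP-55,940 defined 100% efficacy.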

IC50 (radioligand displacement) (Human CB2) | Selectivity, CB2 vs. CB1 [1] | SMILES
> 1000 nM | − (− indicates < 10-fold) | CC(C)(C)c1ccc(CC2[C@@H]3CCCN3CCCN2C(=O)Nc2ccc(Cl)cc2)cc1 (mixture of isomers) [Example 125, (9aS)-1-(4-tert-Butylbenzyl)-N-(4-chlorophenyl)hexahydro-1H-pyrrolo[1,2-a][1,4]diazepine-2(3H)-carboxamide]
> 1000 nM | − (− indicates < 10-fold) | CC(C)(C)c1ccc(CC2=C(C(=O)Nc3ccc(Cl)cc3)CCCn3cncc32)cc1 [Example 82, (E)-9-(4-tert-Butylbenzyl)-N-(4-chlorophenyl)-6,7-dihydro-5H-imidazo[1,5-a]azepine-8-carboxamide]
< 1000 nM | + (+ indicates > 10-fold) | CC(C)(C)c1ccc(C2=C(NC(=O)Nc3ccc(Cl)cc3Cl)CCCn3cccc32)cc1 [Example 86, (E)-1-(9-(4-tert-Butylphenyl)-6,7-dihydro-5H-pyrrolo[1,2-a]azepin-8-yl)-3-(2,4-dichlorophenyl)urea]
< 1000 nM | − (− indicates < 10-fold) | CC(C)(C)c1ccc(C2=C(C(=O)Nc3ccc(Cl)cc3)CCn3cccc32)cc1 [Example 60, 8-(4-tert-Butylphenyl)-N-(4-chlorophenyl)-5,6-dihydroindolizine-7-carboxamide]
> 1000 nM | − (− indicates < 10-fold) | O=C(Nc1ccc(F)cc1F)C1=C(c2ccccc2)c2cccn2CCC1 [Example 73, (E)-N-(2,4-Difluorophenyl)-9-phenyl-6,7-dihydro-5H-pyrrolo[1,2-a]azepine-8-carboxamide]
> 1000 nM | − (− indicates < 10-fold) | Cc1cccc(C2c3cccn3CCCN2C(=O)Nc2ccc(F)cc2F)c1 (stereo not drawn) [Example 10, N-(2,4-Difluorophenyl)-1-m-tolyl-4,5-dihydro-1H-pyrrolo[1,2-a][1,4]diazepine-2(3H)-carboxamide]
< 1000 nM | − (− indicates < 10-fold) | O=C(Nc1ccc(F)c(F)c1)C1=C(c2ccccc2)c2cccn2CCC1 [Example 75, (E)-N-(3,4-Difluorophenyl)-9-phenyl-6,7-dihydro-5H-pyrrolo[1,2-a]azepine-8-carboxamide]
> 1000 nM | − (− indicates < 10-fold) | CC(C)(C)c1ccc(C2=C(C(=O)Nc3ccc(F)cc3F)CCn3cccc32)cc1 [Example 56, 8-(4-tert-Butylphenyl)-N-(2,4-difluorophenyl)-5,6-dihydroindolizine-7-carboxamide]
< 1000 nM | − (− indicates < 10-fold) | CC(C)(C)c1ccc(C2c3cccn3CCCN2C(=O)Cc2ccc(F)cc2)cc1 (stereo not drawn) [Example 50, 1-(1-(4-tert-Butylphenyl)-4,5-dihydro-1H-pyrrolo[1,2-a][1,4]diazepin-2(3H)-yl)-2-(4-fluorophenyl)ethanone]
< 1000 nM | − (− indicates < 10-fold) | CC(C)(C)c1ccc(C2c3cccn3CCCC2NC(=O)Nc2ccc(F)cc2F)cc1 (mixture of isomers) [Example 116, 1-(9-(4-tert-Butylphenyl)-6,7,8,9-tetrahydro-5H-pyrrolo[1,2-a]azepin-8-yl)-3-(2,4-difluorophenyl)urea]
> 1000 nM | − (− indicates < 10-fold) | O=C(Nc1ccc(OC(F)(F)F)cc1)C1CCCn2cccc2C1c1ccccc1 (single isomer, unassigned) [Example 113, (8,9-trans)-9-Phenyl-N-(4-(trifluoromethoxy)phenyl)-6,7,8,9-tetrahydro-5H-pyrrolo[1,2-a]azepine-8-carboxamide]
< 1000 nM | − (− indicates < 10-fold) | CC(C)(C)c1ccc(C2c3cccn3CCCN2C(=O)c2ccc(Cl)cc2Cl)cc1 (stereo not drawn) [Example 49, (1-(4-tert-Butylphenyl)-4,5-dihydro-1H-pyrrolo[1,2-a][1,4]diazepin-2(3H)-yl)(2,4-dichlorophenyl)methanone]
< 1000 nM | − (− indicates < 10-fold) | CC(C)(C)c1ccc(C2c3nccn3CCCN2C(=O)c2ccc(F)cc2F)cc1 (stereo not drawn) [Example 47, (9-(4-tert-Butylphenyl)-6,7-dihydro-5H-imidazo[1,2-a][1,4]diazepin-8(9H)-yl)(2,4-difluorophenyl)methanone]
< 1000 nM | + (+ indicates > 10-fold) | CC(C)(C)c1ccc(C2c3cccn3CCCC2C(=O)Nc2ccc(Cl)cc2)cc1 (stereo not drawn) [Example 92, 9-(4-tert-Butylphenyl)-N-(4-chlorophenyl)-6,7,8,9-tetrahydro-5H-pyrrolo[1,2-a]azepine-8-carboxamide]
> 1000 nM | − (− indicates < 10-fold) | O=C(Nc1ccc(Cl)cc1)[C@H]1CCCn2cccc2[C@@H]1c1ccccc1 (relative stereo) [Example 109, (8,9-trans)-N-(4-Chlorophenyl)-9-phenyl-6,7,8,9-tetrahydro-5H-pyrrolo[1,2-a]azepine-8-carboxamide]
> 1000 nM | − (− indicates < 10-fold) | CC(C)(C)c1ccc(C2=C(C(=O)Nc3ccc(Cl)cc3Cl)CCn3cccc32)cc1 [Example 57, 8-(4-tert-Butylphenyl)-N-(2,4-dichlorophenyl)-5,6-dihydroindolizine-7-carboxamide]
> 1000 nM | − (− indicates < 10-fold) | CC(C)(C)c1ccc(CC2[C@@H]3CCCN3CCCN2C(=O)Nc2ccc(F)cc2F)cc1 (mixture of isomers) [Example 124, (9aS)-1-(4-tert-Butylbenzyl)-N-(2,4-difluorophenyl)hexahydro-1H-pyrrolo[1,2-a][1,4]diazepine-2(3H)-carboxamide]
> 1000 nM | − (− indicates < 10-fold) | O=C(Nc1ccc(F)c(F)c1)[C@H]1CCCn2cccc2[C@@H]1c1ccccc1 (relative stereo) [Example 107, (8,9-trans)-N-(3,4-Difluorophenyl)-9-phenyl-6,7,8,9-tetrahydro-5H-pyrrolo[1,2-a]azepine-8-carboxamide]
< 1000 nM | + (+ indicates > 10-fold) | CC(C)(C)c1ccc(C2c3cccn3CCCN2C(=O)Nc2ccc(F)cc2F)cc1 (stereo not drawn) [Example 7, 1-(4-tert-Butylphenyl)-N-(2,4-difluorophenyl)-4,5-dihydro-1H-pyrrolo[1,2-a][1,4]diazepine-2(3H)-carboxamide]
> 1000 nM | − (− indicates < 10-fold) | O=C(Nc1ccc(F)cc1F)C1CCn2cccc2C1c1ccccc1 (mixture of isomers) [Example 100, N-(2,4-Difluorophenyl)-8-phenyl-5,6,7,8-tetrahydroindolizine-7-carboxamide]
> 1000 nM | − (− indicates < 10-fold) | O=C(Nc1ccc(C(F)(F)F)cc1)[C@H]1CCCn2cccc2[C@@H]1c1ccccc1 (relative stereo) [Example 111, (8,9-trans)-9-Phenyl-N-(4-(trifluoromethyl)phenyl)-6,7,8,9-tetrahydro-5H-pyrrolo[1,2-a]azepine-8-carboxamide]
